From the SangsterLogP compilation

| logP | SMILES |
| --- | --- |
| 2.27 | CCOC(=O)c1cc(C#N)c(S(C)=O)s1 (configuration not stated) |
| 2.65 | Cc1sc(S(C)=O)c([N+](=O)[O-])c1C (configuration not stated) |
| 1.78 | CCS(=O)c1sc(C#N)cc1C#N (configuration not stated) |
| 1.31 | CCS(=O)c1ccc(C(C)=O)s1 (configuration not stated) |
| 3.18 | CC(=O)c1sc(S(C)=O)c(-c2ccc(Cl)cc2)c1N (configuration not stated) |
| 3.82 | CC(=O)c1sc(S(C)=O)c(-c2ccc(Cl)cc2)c1C (configuration not stated) |
| 3.31 | CC(=O)c1sc(S(C)=O)c(C#N)c1-c1ccc(Cl)cc1 (configuration not stated) |
| 3.44 | CCCCS(=O)c1sc(C#N)c(Cl)c1C#N (configuration not stated) |
| 2.35 | CCS(=O)c1sc(C#N)c(OC)c1C#N (configuration not stated) |
| 2.15 | CS(=O)c1sc(C#N)c(Cl)c1C#N (configuration not stated) |
| 2.31 | CCS(=O)c1sc(Cl)cc1C#N (configuration not stated) |
| 2.22 | CCS(=O)c1sc(C(C)=O)c(C)c1C#N (configuration not stated) |
| 1.82 | CCS(=O)c1sc(C(C)=O)c(N)c1C#N (configuration not stated) |
| 2.02 | COc1c(C#N)sc(S(C)=O)c1C#N (configuration not stated) |
| 2.81 | CCS(=O)c1sc(C(C)=O)c(C)c1[N+](=O)[O-] (configuration not stated) |
| 2.18 | CCCS(=O)c1sc(C#N)cc1C#N (configuration not stated) |
| 2.22 | CCS(=O)c1sc(C#N)c(C)c1C(C)=O (configuration not stated) |
| 2.64 | CCS(=O)c1sc(C(C)=O)c(Cl)c1C#N (configuration not stated) |
| 2.95 | CCCS(=O)c1sc(C#N)c(Cl)c1C#N (configuration not stated) |

The next lines start with the compound.

| SMILES | logP |
| --- | --- |
| CS(=O)c1ccc([N+](=O)[O-])s1 (configuration not stated) | 1.4 |
| CS(=O)c1scc(-c2ccccc2)c1[N+](=O)[O-] (configuration not stated) | 3.2 |
| CCS(=O)c1sccc1[N+](=O)[O-] (configuration not stated) | 2.06 |
| CS(=O)c1sccc1[N+](=O)[O-] (configuration not stated) | 1.69 |
| CS(=O)c1cccs1 (configuration not stated) | 0.91 |
| Cc1csc(S(C)=O)c1[N+](=O)[O-] (configuration not stated) | 2.19 |
| Cc1c(C#N)sc(S(C)(=O)=O)c1-c1ccc(Cl)cc1 | 3.8 |
| CS(=O)c1sc(C#N)cc1C#N (configuration not stated) | 1.31 |
| CS(=O)c1sccc1C#N (configuration not stated) | 0.96 |
| CS(=O)c1sccc1Br (configuration not stated) | 1.71 |
| CCCS(=O)c1sccc1[N+](=O)[O-] (configuration not stated) | 2.52 |
| CCCCS(=O)c1sc(C#N)cc1C#N (configuration not stated) | 2.64 |
| CS(=O)c1ccsc1 (configuration not stated) | 0.91 |
